Earlier results as cited in US10905730B2, “Phytocannabinoid topical compositions for releiving pain” (priority 2017, dated 2021).
Read-outs that look alike come from different tables or passages of the source.

Q: Which results are given for `C=C(C)[C@@H]1CCC(C)=C[C@H]1c1c(O)cc(CCCCC)cc1O` [CBD, cannabidiol]?
A: solubility in organic solvents: soluble in organic solvents such as pentane; solubility in water: insoluble in water; chemical stability (acidic conditions): cyclizes to THC; chemical stability (strongly basic media and presence of air): oxidized to a quinone
